Test results from ChEMBL document CHEMBL3352346, “Optimization of sphingosine-1-phosphate-1 receptor agonists: effects of acidic, basic, and zwitterionic chemotypes on pharmacokinetic and pharmacodynamic profiles” (J Med Chem, 2014).
In brackets after ≈: the same amount, converted by molar mass. One block for each compound: values may come before it. Activity calls are given as the source filed them. No cut-off for these calls is given here.

Experiments:
[1] = Volume of distribution at steady state in CD rat at 1 mg/kg, iv or 3 mg/kg, po using DMSO/10%(w/v) Kleptose, 0.9% saline(aq) (2%/98%); assay type: ADME, organism-based; conditions: in vivo, read-out: Vdss
[2] = Chromatographic hydrophobicity index, log D of the compound at pH 10.5; assay type: physicochemical; conditions: buffer
[3] = Chromatographic hydrophobicity index, log D of the compound at pH 2; assay type: physicochemical; conditions: buffer
[4] = target: Sphingosine 1-phosphate receptor 1 (Homo sapiens, UniProt P21453); assay: Agonist activity at human S1P1R expressed in RH7777 membranes assessed as [35S]GTPgammaS binding after 30 mins; assay type: functional, cell membranes
Chain of Sphingosine 1-phosphate receptor 1 (P21453 whole entry): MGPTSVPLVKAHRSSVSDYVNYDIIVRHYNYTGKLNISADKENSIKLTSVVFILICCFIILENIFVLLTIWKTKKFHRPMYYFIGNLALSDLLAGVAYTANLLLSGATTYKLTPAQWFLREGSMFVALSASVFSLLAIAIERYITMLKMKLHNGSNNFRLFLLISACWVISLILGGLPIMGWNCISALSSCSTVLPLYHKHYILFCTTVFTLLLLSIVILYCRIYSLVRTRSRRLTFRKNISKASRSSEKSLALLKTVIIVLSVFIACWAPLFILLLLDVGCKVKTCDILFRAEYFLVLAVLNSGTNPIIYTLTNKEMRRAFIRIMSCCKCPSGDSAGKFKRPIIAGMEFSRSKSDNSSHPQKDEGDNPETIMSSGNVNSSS

[5] = Oral bioavailability in CD rat at 3 mg/kg using Methylcellulose(aq), 1% (w/v) suspension; assay type: ADME, organism-based; conditions: CD, in vivo
Rattus norvegicus [6] = assay: Reduction of lymphocyte count in rat at 3 mg/kg, po measured at 12 hrs relative to control; assay type: functional
[7] = target: Sphingosine 1-phosphate receptor 3 (Homo sapiens, UniProt Q99500); assay: Agonist activity at human S1P3R expressed in RBL membranes assessed as [35S]GTPgammaS binding after 30 mins; assay type: functional, cell membranes
Chain of Sphingosine 1-phosphate receptor 3 (Q99500 whole entry): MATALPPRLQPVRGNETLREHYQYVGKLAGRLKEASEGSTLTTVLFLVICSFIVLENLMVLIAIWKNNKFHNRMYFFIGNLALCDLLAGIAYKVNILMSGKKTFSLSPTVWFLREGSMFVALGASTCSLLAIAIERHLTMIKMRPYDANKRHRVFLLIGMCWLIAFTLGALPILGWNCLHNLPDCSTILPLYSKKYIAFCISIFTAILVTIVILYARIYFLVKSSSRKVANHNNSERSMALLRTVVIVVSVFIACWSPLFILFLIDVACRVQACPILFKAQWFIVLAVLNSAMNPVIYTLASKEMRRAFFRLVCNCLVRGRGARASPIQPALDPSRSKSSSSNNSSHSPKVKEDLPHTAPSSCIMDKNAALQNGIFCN

[8] = Half life in CD rat at 1 mg/kg, iv or 3 mg/kg, po using DMSO/10%(w/v) Kleptose, 0.9% saline(aq) (2%/98%); assay type: ADME, organism-based; conditions: in vivo
Rattus norvegicus [9] = assay: Reduction of lymphocyte count in rat at 3 mg/kg, po measured at 24 hrs relative to control; assay type: functional
Rattus norvegicus [10] = assay: Reduction of lymphocyte count in rat at 3 mg/kg, po measured at 4 hrs relative to control; assay type: functional
[11] = Chromatographic hydrophobicity index, log D of the compound at pH 7.4; assay type: physicochemical; conditions: buffer
Rattus norvegicus [12] = assay: Reduction of lymphocyte count in rat at 3 mg/kg, po measured at 8 hrs relative to control; assay type: functional
[13] = Clearance in CD rat at 1 mg/kg, iv or 3 mg/kg, po using DMSO/10%(w/v) Kleptose, 0.9% saline(aq) (2%/98%); assay type: ADME, organism-based; conditions: in vivo
Cytochrome P450 2C9 = Cytochrome P450 2C9 (Homo sapiens, UniProt P11712); assay: Inhibition of CYP2C9 (unknown origin); assay type: ADME
Chain of Cytochrome P450 2C9 (P11712 whole entry): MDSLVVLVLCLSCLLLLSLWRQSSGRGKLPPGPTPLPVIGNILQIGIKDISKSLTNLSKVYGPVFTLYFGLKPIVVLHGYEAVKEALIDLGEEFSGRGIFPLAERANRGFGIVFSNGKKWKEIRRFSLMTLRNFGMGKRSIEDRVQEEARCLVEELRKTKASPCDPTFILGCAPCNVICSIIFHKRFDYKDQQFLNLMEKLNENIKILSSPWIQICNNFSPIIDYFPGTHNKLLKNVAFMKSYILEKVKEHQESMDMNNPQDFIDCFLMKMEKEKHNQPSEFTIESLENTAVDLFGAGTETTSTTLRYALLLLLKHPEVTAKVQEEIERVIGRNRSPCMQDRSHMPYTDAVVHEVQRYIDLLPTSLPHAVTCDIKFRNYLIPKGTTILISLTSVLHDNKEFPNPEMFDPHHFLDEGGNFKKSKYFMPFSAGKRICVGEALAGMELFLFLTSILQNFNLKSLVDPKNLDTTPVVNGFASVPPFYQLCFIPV

[14] = Inhibition of CYP3A4VR (unknown origin); assay type: ADME, Homo sapiens
[15] = Volume of distribution at steady state in cynomolgus monkey at 1 mg/kg, iv or 3 mg/kg, po using DMSO/10%(w/v) Kleptose, 0.9% saline(aq) (2%/98%); assay type: ADME, organism-based, Macaca fascicularis; conditions: in vivo, read-out: Vdss
[16] = Fraction unbound in human blood; assay type: ADME, tissue-based
Cytochrome P450 1A2 = target: T1, Cytochrome P450 1A2 (Homo sapiens, UniProt P05177); assay: Inhibition of CYP1A2 (unknown origin); assay type: ADME
T1 sequence (P05177 whole entry): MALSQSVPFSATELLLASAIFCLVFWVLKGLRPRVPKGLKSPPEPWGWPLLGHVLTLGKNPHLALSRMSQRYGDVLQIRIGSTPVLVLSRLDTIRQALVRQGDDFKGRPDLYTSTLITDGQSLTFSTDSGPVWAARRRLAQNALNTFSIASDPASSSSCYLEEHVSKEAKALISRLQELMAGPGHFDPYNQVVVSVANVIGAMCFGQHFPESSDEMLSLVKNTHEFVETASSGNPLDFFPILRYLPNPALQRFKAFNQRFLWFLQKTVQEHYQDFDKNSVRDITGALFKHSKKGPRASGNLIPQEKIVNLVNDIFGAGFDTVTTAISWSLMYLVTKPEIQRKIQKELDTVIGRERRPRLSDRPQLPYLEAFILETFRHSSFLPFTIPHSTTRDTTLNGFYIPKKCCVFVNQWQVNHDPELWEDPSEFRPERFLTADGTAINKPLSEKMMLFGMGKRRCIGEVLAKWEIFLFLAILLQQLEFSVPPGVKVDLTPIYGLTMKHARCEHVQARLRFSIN

[17] = Dissociation constant, pKa of the compound; assay type: physicochemical
[18] = Fraction unbound in dog blood; assay type: ADME, tissue-based, Canis lupus familiaris
Hepatocyte = assay: Intrinsic clearance in rat hepatocyte; assay type: ADME, cell-based; conditions: hepatocytes
[19] = Volume of distribution at steady state in Beagle dog at 1 mg/kg, iv or 2 mg/kg, po using DMSO/10%(w/v) Kleptose, 0.9% saline(aq) (2%/98%); assay type: ADME, organism-based, Canis lupus familiaris; conditions: beagle, in vivo, read-out: Vdss
[20] = Half life in Beagle dog at 1 mg/kg, iv or 2 mg/kg, po using DMSO/10%(w/v) Kleptose, 0.9% saline(aq) (2%/98%); assay type: ADME, organism-based, Canis lupus familiaris; conditions: beagle, in vivo
[21] = Solubility in simulated gastric fluid; assay type: ADME
[22] = Fraction unbound in rat blood; assay type: ADME, tissue-based
Cytochrome P450 2D6 = Cytochrome P450 2D6 (Homo sapiens, UniProt P10635); assay: Inhibition of CYP2D6 (unknown origin); assay type: ADME
Chain of Cytochrome P450 2D6 (P10635 whole entry): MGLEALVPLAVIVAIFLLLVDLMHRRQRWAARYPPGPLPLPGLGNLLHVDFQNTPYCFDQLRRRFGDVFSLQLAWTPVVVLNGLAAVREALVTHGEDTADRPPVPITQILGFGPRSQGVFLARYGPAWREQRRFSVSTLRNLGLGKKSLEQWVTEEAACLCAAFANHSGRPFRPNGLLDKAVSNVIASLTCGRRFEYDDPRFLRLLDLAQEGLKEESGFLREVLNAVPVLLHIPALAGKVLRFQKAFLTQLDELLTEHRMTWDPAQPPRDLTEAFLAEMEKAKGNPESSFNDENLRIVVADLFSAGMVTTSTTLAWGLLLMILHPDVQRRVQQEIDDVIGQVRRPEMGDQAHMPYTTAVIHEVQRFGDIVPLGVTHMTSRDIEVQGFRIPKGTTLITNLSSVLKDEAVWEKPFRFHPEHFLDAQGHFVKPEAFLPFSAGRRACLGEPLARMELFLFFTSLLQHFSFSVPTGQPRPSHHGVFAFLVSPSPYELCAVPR

[23] = Solubility in fed-state simulated intestinal fluid at pH 5 after 24 hrs; assay type: ADME
[24] = Half life in cynomolgus monkey at 1 mg/kg, iv or 3 mg/kg, po using DMSO/10%(w/v) Kleptose, 0.9% saline(aq) (2%/98%); assay type: ADME, organism-based, Macaca fascicularis; conditions: in vivo
[25] = Clearance in cynomolgus monkey at 1 mg/kg, iv or 3 mg/kg, po using DMSO/10%(w/v) Kleptose, 0.9% saline(aq) (2%/98%); assay type: ADME, organism-based, Macaca fascicularis; conditions: in vivo
[26] = Intrinsic clearance in dog hepatocyte; assay type: ADME, cell-based, Canis lupus familiaris; conditions: hepatocytes
[27] = Solubility in fed-state simulated intestinal fluid at pH 6.5 after 24 hrs; assay type: ADME
Rattus norvegicus [28] = assay: Reduction in lymphocyte level in po dosed male Lewis rat; assay type: functional, organism-based; conditions: Rattus norvegicus, Lewis
Cytochrome P450 2C19 = Cytochrome P450 2C19 (Homo sapiens, UniProt P33261); assay: Inhibition of CYP2C19 (unknown origin); assay type: ADME
Chain of Cytochrome P450 2C19 (P33261 whole entry): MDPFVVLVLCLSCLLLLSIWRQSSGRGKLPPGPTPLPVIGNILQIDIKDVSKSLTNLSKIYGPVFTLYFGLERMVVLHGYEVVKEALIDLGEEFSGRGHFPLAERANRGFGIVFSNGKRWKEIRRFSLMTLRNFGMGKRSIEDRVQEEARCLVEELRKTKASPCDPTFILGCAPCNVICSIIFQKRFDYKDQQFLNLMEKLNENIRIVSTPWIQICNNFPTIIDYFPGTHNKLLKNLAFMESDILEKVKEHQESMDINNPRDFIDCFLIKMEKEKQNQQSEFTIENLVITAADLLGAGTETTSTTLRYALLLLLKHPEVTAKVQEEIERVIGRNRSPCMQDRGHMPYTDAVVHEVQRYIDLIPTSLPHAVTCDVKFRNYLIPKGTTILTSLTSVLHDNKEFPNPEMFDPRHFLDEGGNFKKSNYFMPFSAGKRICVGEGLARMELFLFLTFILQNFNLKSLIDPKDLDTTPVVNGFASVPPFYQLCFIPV

[29] = Inhibition of CYP3A4VG (unknown origin); assay type: ADME, Homo sapiens
[30] = Permeability in MDCK cells; assay type: ADME, cell-based, Canis lupus familiaris; conditions: dog, read-out: permeability
[31] = Oral bioavailability in cynomolgus monkey at 3 mg/kg using Methylcellulose(aq), 1% (w/v) suspension; assay type: ADME, organism-based, Macaca fascicularis; conditions: in vivo
[32] = Oral bioavailability in Beagle dog at 2 mg/kg using Methylcellulose(aq), 1% (w/v) suspension; assay type: ADME, organism-based, Canis lupus familiaris; conditions: beagle, in vivo
[33] = Clearance in Beagle dog at 1 mg/kg, iv or 2 mg/kg, po using DMSO/10%(w/v) Kleptose, 0.9% saline(aq) (2%/98%); assay type: ADME, organism-based, Canis lupus familiaris; conditions: in vivo
Albumin = Albumin (Homo sapiens, UniProt P02768); assay: Fraction unbound as a percentage in human serum albumin; assay type: ADME
Chain of Albumin (P02768 whole entry): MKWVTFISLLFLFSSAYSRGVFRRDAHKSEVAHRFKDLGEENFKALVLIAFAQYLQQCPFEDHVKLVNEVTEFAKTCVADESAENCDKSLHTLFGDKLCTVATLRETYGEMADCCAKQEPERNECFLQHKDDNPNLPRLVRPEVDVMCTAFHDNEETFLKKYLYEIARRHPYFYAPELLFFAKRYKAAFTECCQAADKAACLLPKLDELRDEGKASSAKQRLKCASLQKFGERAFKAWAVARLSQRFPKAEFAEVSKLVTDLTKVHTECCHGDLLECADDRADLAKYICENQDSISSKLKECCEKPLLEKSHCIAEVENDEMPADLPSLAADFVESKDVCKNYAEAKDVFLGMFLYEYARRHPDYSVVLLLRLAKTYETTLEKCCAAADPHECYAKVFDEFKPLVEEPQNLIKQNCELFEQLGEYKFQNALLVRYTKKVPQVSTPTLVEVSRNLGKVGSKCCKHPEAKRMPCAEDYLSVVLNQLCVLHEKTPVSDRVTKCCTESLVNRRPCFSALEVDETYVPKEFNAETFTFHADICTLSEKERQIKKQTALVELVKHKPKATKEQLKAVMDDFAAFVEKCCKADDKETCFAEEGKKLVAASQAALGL

Rattus norvegicus [34] = assay: Reduction of lymphocyte count in rat at 0.3 to 3 mg/kg, po measured relative to control; assay type: functional, organism-based

SMILES: CC(C)Oc1ccc(-c2nc(-c3cccc4c3CCNC4CC(=O)O)no2)cc1Cl (stereo unspecified)
Vd [1]: 2.7 L/kg | chromatographic logD [2]: 1.73 | chromatographic logD [3]: 1.47 | EC50 [4]: 20 nM | bioavailability [5]: 10% | Activity (Rattus norvegicus [6]): 58 | EC50 [7]: 5010 nM | half-life [8]: 6.7 h | Activity (Rattus norvegicus [9]): 99 | Activity (Rattus norvegicus [10]): 24 | chromatographic logD [11]: 2.02 | Activity (Rattus norvegicus [12]): 12 | clearance [13]: 5 mL/min/kg

SMILES: CC(C)Oc1ccc(-c2nc(-c3cccc4c3CCN(CCC(=O)O)CC4)no2)cc1Cl
EC50 [4]: 158 nM | EC50 [7]: > 31600 nM

SMILES: O=C(O)c1cnn(Cc2ccc(-c3noc(-c4cc(-c5ccccc5)c(C(F)(F)F)s4)n3)cc2)c1
EC50 [4]: 251 nM | fraction unbound (Albumin): 0.01 | EC50 [7]: 1580 nM

SMILES: CC(C)Oc1ccc(-c2nc(-c3ccc4c(cnn4CCC(=O)O)c3)no2)cc1Cl
EC50 [4]: 31.6 nM | fraction unbound (Albumin): 0.013 | EC50 [7]: > 31600 nM

SMILES: CC(C)Oc1ccc(-c2nc(-c3ccc4c(c3)CCN(CCCC(=O)O)CC4)no2)cc1C#N
IC50 (Cytochrome P450 2C9): > 50000 nM | IC50 [14]: > 50000 nM | Vd [1]: 1.5 L/kg | EC50 [4]: 7.94 nM | IC50 (Cytochrome P450 1A2): > 50000 nM | bioavailability [5]: 62% | pKa [17]: 9.15 | CLH (Hepatocyte): < 0.85 mL/min/g | Vd [19]: 1.6 L/kg | inhibition (Rattus norvegicus [34]): Active | half-life [20]: 8 h | EC50 [7]: 7940 nM | solubility [21]: 20 µg/mL (≈ 43.4 µM) | IC50 (Cytochrome P450 2D6): > 50000 nM | half-life [8]: 2.6 h | solubility at 24 h [23]: 100 µg/mL (≈ 217 µM) | CLH [26]: < 1.7 mL/min/g | solubility at 24 h [27]: 30 µg/mL (≈ 65.1 µM) | IC50 (Rattus norvegicus [28]): 15 nM | IC50 (Cytochrome P450 2C19): > 50000 nM | IC50 [29]: > 50000 nM | Papp [30]: 15 ×10⁻⁶ cm/s | bioavailability [32]: 69% | clearance [33]: 3 mL/min/kg | clearance [13]: 7 mL/min/kg

SMILES: CC(C)Oc1ccc(-c2nc(-c3cccc4c3OCCNC4CCCC(=O)O)no2)cc1Cl (stereo unspecified)
EC50 [4]: 10 nM | EC50 [7]: 25100 nM

SMILES: CC(C)Oc1ccc(-c2nc(-c3ccc4c(c3)CCN(CC(=O)O)CC4)no2)cc1C#N
EC50 [4]: 3.98 nM | EC50 [7]: 2000 nM

SMILES: CC(C)Oc1ccc(-c2nc(-c3cccc4c3CN(CCCC(=O)O)C4)no2)cc1C#N
EC50 [4]: 398 nM | EC50 [7]: > 31600 nM

SMILES: CC(C)Oc1ccc(-c2nc(-c3ccc4c(c3)CN(CCC(=O)O)CCO4)no2)cc1Cl
EC50 [4]: 126 nM | EC50 [7]: 2000 nM

SMILES: CC(C)Oc1ccc(-c2nc(-c3cccc4c3CCNCC4)no2)cc1C#N
EC50 [4]: 2 nM | EC50 [7]: 7940 nM

SMILES: CC(C)Oc1ccc(-c2nc(-c3ccc4c(c3)CNCCO4)no2)cc1C#N
EC50 [4]: 25.1 nM | EC50 [7]: 6310 nM

More lines, in order of falling EC50 [4], values ahead:

EC50 [4]: 2510 nM | EC50 [7]: > 31600 nM
SMILES: CC(C)Oc1ccc(-c2nc(-c3cccc4c3CCN(CC(=O)O)CC4)no2)cc1Cl

EC50 [4]: 501 nM | EC50 [7]: 2000 nM
SMILES: CC(C)Oc1ccc(-c2nc(-c3cccc4c3CN(CCCC(=O)O)C4)no2)cc1Cl

EC50 [4]: 126 nM | EC50 [7]: > 31600 nM
SMILES: CC(C)Oc1ccc(-c2nc(-c3ccc4c(c3)CCCNC4)no2)cc1C#N

IC50 (Cytochrome P450 2C9): 27000 nM | IC50 [14]: 39000 nM | Vd [15]: 4 L/kg | Vd [1]: 1.2 L/kg | fraction unbound [16]: 0.02 | EC50 [4]: 39.8 nM | IC50 (Cytochrome P450 1A2): > 50000 nM | bioavailability [5]: 83% | pKa [17]: 7.39 | fraction unbound [18]: 0.018 | CLH (Hepatocyte): 1 mL/min/g | Vd [19]: 1 L/kg | half-life [20]: 0.4 h | EC50 [7]: > 31600 nM | solubility [21]: > 1320 µg/mL | fraction unbound [22]: 0.012 | IC50 (Cytochrome P450 2D6): > 50000 nM | half-life [8]: 3 h | solubility at 24 h [23]: 30 µg/mL (≈ 63.6 µM) | half-life [24]: 3.2 h | clearance [25]: 30 mL/min/kg | CLH [26]: 8.3 mL/min/g | solubility at 24 h [27]: 320 µg/mL (≈ 678 µM) | IC50 (Rattus norvegicus [28]): 127 nM | IC50 (Cytochrome P450 2C19): > 50000 nM | IC50 [29]: 40000 nM | Papp [30]: 15.5 ×10⁻⁶ cm/s | bioavailability [31]: 39% | bioavailability [32]: 57% | clearance [33]: 26 mL/min/kg | clearance [13]: 7 mL/min/kg
SMILES: CC(C)Oc1ccc(-c2nc(-c3cccc4c3OCCN(CCCC(=O)O)C4)no2)cc1Cl

EC50 [4]: 15.8 nM | EC50 [7]: > 31600 nM
SMILES: CC(C)Oc1ccc(-c2nc(-c3cccc4c3CCNCC4)no2)cc1Cl

EC50 [4]: 3.98 nM | EC50 [7]: 31600 nM
SMILES: CC(C)Oc1ccc(-c2nc(-c3ccc4c(c3)CCNC4)no2)cc1C#N

EC50 [4]: 2.51 nM | EC50 [7]: 251 nM
SMILES: CC(C)Oc1ccc(-c2nc(-c3ccc4c(c3)CNC(CCC(=O)O)CO4)no2)cc1Cl (stereo unspecified)
